Measurements taken from patent US10576078B2 (Council of Scientific & Industrial Research, priority 2017, dated 2020).

Assays:
[1] = tested on: stat5; experiment: Immunoblotting of stat5 expression and phosphorylation in K562 cells; format: cell-based, Human
Experimental: K562 cells were treated as indicated for 72 h and stat5 expression was assessed by immunoblotting. Pioglitazone (Pio) was used as a positive control. Data is one representative of 3 independent experiments.
K562 cells were treated as indicated for 30 min and stat5 phosphorylation at Y694 or CrkL phosphorylation at Y207 were assessed by immunoblotting. Total stat5 or β-actin expression was assessed to ensure equal loading. Pio was used as a negative control and IMT was used as a positive control. Data is one representative of 3 independent experiments.
K562 cells were cultured in 6 well plates and treated as indicated in figures or descriptions of FIG. 1E, FIG. 1G and FIG. 2D-E. Cells were then homogenized in lysis buffer containing 50 mM Tris-HCl, pH 7.5, 150 mM NaCl, 1% NP40, 5 mM EDTA, 1 mM DTT, protease and phosphatase inhibitor cocktails (Sigma) and incubated on ice for 30 min followed by 5 cycles of freeze-thaw. Samples were then centrifuged at 14000 rpm at 4° C. for 30 min. Supernatants were then quantified by Bichinchonic acid (Sigma)-based protein estimation. Equal amount of proteins were solubilized in Laemmli buffer, and were resolved by 10%-12% SDS PAGE and transferred onto PVDF membranes (Millipore; Billerica, Mass.). […] Immunoreactivity was detected using a chemiluminescent HRP Substrate (Millipore) in a LAS 4010 Chemi-doc Imager (GE Healthcare, Little Chalfont, UK). […]

[2] = tested on: chronic phase CML patient-derived mononuclear cells (CP-CML cells); experiment: Apoptosis by annexin V/PI staining in CP-CML cells; format: cell-based, Human; conditions: 5 μM, 48 h
Source text: FD; freshly diagnosed, Resp; imatinib-responder, Res; imatinib-resistant.
Peripheral blood samples were obtained from chronic phase (CP-CML), accelerated phase (AP) or blast crisis (BC) CML patients (BCR− ABL+ v e freshly diagnosed, Imatinib-resistant or responders), and healthy donors from King George's Medical University (Clinical Hematology and Medical Oncology division), Lucknow, following ethical approval (Approval No: 1638/R. Cell-12) as per institutional ethical guidelines after written consent. Peripheral blood mononuclear cells (PBMC) were isolated on Percoll (Sigma) density gradient by centrifugation. Briefly, the blood was collected in vials coated with trisodium citrate buffer. Cells were then centrifuged 700 g for 10 min and plasma was removed. The pellet was resuspended in 6 ml Hank's balanced salt solution (HBSS; Invitrogen, Thermo Fisher Scientific), and then 2 ml of 6% Dextran in HBSS was added to it. Cells were then incubated at 37° C. for 30 min. The supernatant was then collected and centrifuged at 300 g for 5 min. The pellet was then resuspended in 2 ml HBSS supplemented with 0.18% glucose and loaded onto percoll gradient. PBMCs were then isolated by centrifugation.

[3] = tested on: K562 cells; experiment: Western blotting of apoptosis proteins in K562 cells; format: cell-based, Human
Experimental: PARP cleavage in K562 cells was assessed by western blotting. One representative of three independent experiments is shown.
The expression of indicated proteins was determined by immunoblotting in K562 cells following indicated treatments. One representative of three independent experiments is shown.
K562 cells were cultured in 6 well plates and treated as indicated in figures or descriptions of FIG. 1E, FIG. 1G and FIG. 2D-E. Cells were then homogenized in lysis buffer containing 50 mM Tris-HCl, pH 7.5, 150 mM NaCl, 1% NP40, 5 mM EDTA, 1 mM DTT, protease and phosphatase inhibitor cocktails (Sigma) and incubated on ice for 30 min followed by 5 cycles of freeze-thaw. Samples were then centrifuged at 14000 rpm at 4° C. for 30 min. Supernatants were then quantified by Bichinchonic acid (Sigma)-based protein estimation. Equal amount of proteins were solubilized in Laemmli buffer, and were resolved by 10%-12% SDS PAGE and transferred onto PVDF membranes (Millipore; Billerica, Mass.). Membranes were blocked in 5% (w/v) non-fat dried milk powder (Sigma) in PBS containing 0.2% Tween 20 (Sigma). The membranes were then sequentially incubated with primary and secondary antibodies in PBS containing 0.2% Tween 20 and 2.5% BSA (with 3 washes in between). Immunoreactivity was detected using a chemiluminescent HRP Substrate (Millipore) in a LAS 4010 Chemi-doc Imager (GE Healthcare, Little Chalfont, UK). Antibodies used: phospho-STAT5, STAT5, cleaved PARP and caspases-3, -8, -9, pCrkL, Bcl2 and Bax antibodies were from Cell Signaling Technology (Boston, Mass.). Mouse monoclonal anti-β-Actin-Peroxidase and horse raddish peroxidase-conjugated secondary antibodies were from Sigma-Aldrich. For immunoblotting all primary antibodies were used in 1:1000 dilutions except β-actin (1:50000). Secondary antibodies were used at 1:10000 dilutions.

[4] = tested on: K562 cells; experiment: TUNEL assay in K562 cells; format: cell-based, Human; conditions: CFZ 5 μM, 48 h
Experimental: K562 cells were treated with CFZ for 48 h and TUNEL staining was performed followed by fluorescent microscopy. Images are representative of two independent experiments (8 fields per group).

[5] = tested on: CD34+ cells from imatinib-resistant patients (quiescent LSCs); experiment: CFSE assay of quiescent LSCs; format: cell-based, Human
Experimental: Cells were gated depending on CFSE intensity. […] Apoptosis in these cells was determined by annexin V staining.
For assessing apoptosis in quiescent LSCs, purified CD34^+ cells were first stained with carboxyfluorescein succinimidyl ester (CFSE; Invitrogen) for 30 min. Cells were then washed and resuspended in SFM medium with 5 growth factors and were kept at 37° C. overnight. Next day, cells were treated as indicated in SFM medium with growth factors and were maintained further for 4 days with supplementation of the drugs every 48 h (drug concentrations in FIG. 5 and its description). Cells were then harvested, washed, and were labeled with CD34-PE and Annexin-APC antibodies and then gated into non-dividing cells (CD34^+CFSE^bright) and dividing cell (CD34^+CFSE^dim) population based on CFSE fluorescence intensity. […] Number of cells or apoptosis was determined by flowcytometry.

[6] = rat, in vivo, po
Source text: (§1) Sprague-Dawley rats (n=6 per group) were divided into 3 groups. […] Plasma was separated and processed for analysis by LC-MS/MS. For pharmacokinetic and statistical analysis, plasma concentration versus time data were plotted and analyzed by non-compartmental analysis method using WinNonlin (Pharsight, Mountain View, Calif.) software.
as §1, with “For this SD” for “Sprague-Dawley”

[7] = tested on: CP-CML cells; experiment: Megakaryocytic surface markers in CP-CML cells by flow cytometry; format: cell-based, Human; conditions: 2.5 μM CFZ, 72 h
Experimental: FIG. 3D-3E in particular show CFZ induces megakaryocytic surface markers CD61 and CD41 in CP-CML cells. CD61 (D) and CD41 (E) surface expression in CP-CML (gated monocytes) cells after treatment with 2.5 μM CFZ for 72 h were assessed by flowcytometry. *p<0.05, ***p<0.0001.
Differentiation analyses by flow cytometry: K562 (FIG. 3B-C) or primary CP-CML cells (FIG. 3D-E) were treated with vehicle, CFZ and PMA as indicated in the respective figures and figure descriptions for 72 hrs. Cells were then harvested, washed, and centrifuged, resuspended in 100 μl PBS and were stained with CD41-FITC or CD61-PE antibodies for 30 min at room temperature (in dark). After incubation, the cells were washed and resuspended in 300 μl PBS and were analyzed on a FACSCalibur flow cytometer.

CC(C)/N=c1\cc2n(-c3ccc(Cl)cc3)c3ccccc3nc-2cc1Nc1ccc(Cl)cc1 [CFZ, Clofazimine]
stat5 phosphorylation ([1]; 30 min, Y694): without altering
stat5 protein expression ([1]; 72 h, FIG. 2D): suppressed
efficacy of apoptosis induction ([2]; CP-CML cells from freshly diagnosed patients): comparable to imatinib
efficacy of apoptosis induction ([2]; CP-CML cells from imatinib responders): comparable to imatinib
efficacy of apoptosis induction versus dasatinib ([2]; CP-CML cells harboring BCR-ABL mutation F359V): higher
efficacy of apoptosis induction versus dasatinib ([2]; CP-CML cells harboring BCR-ABL mutation M244V): comparable
efficacy of apoptosis induction versus dasatinib ([2]; CP-CML cells harboring BCR-ABL mutation M351T): higher
efficacy of apoptosis induction versus dasatinib ([2]; CP-CML cells harboring BCR-ABL mutation Y253H): higher
efficacy of apoptosis induction ([2]; imatinib-resistant CP-CML cells): higher than imatinib and dasatinib
Bax expression [3]: increased
Bcl-2 expression [3]: decreased
caspase-3 activation [3]: activated
caspase-9 activation [3]: activated
cytochrome C release [3]: induced
apoptosis as determined by PARP cleavage ([3]; western blotting): induces apoptosis
apoptosis as determined by TUNEL assay [4]: induces apoptosis
apoptosis in CFSE-bright cells ([5]; 96 h, annexin V): robust apoptosis
apoptosis in CFSE-dim cells ([5]; 96 h, annexin V): robust apoptosis
CFSE-dim (dividing cell) population ([5]; n=3, 96 h): increased
number of CFSE-bright (non-dividing) cells ([5]; n=3, 96 h): drastically reduced
Tmax in combination group compared to individual groups [6]: no change
clearance in combination group compared to individual groups [6]: lower
megakaryocytic surface marker CD41 [7]: increased
megakaryocytic surface marker CD61 [7]: increased
